Data taken from patent US5773421A, “Antifungal fusacandins” (Abbott Laboratories, priority 1995, dated 1998).
Converted amounts (≈) assume the structure as drawn. Read-outs that look alike come from different tables or passages of the source.

Assays:
Experiment in all cases: MIC by agar dilution method
Type in all cases: cell-based
[1] = tested on: Candida albicans ATCC 62376
Protocol: (§1) Minimal inhibitory concentrations (MICs) were determined by an agar dilution method. The test compounds were serially diluted in MeOH and 0.2 mL portions were mixed with 20 mL of molten, cooled Sabouraud dextrose agar (Difco). Yeast cell inoculum was prepared by growing cultures on Sabouraud dextrose agar for 18 hours at 32° C. and suspending the cells in phosphate buffered saline. Filamentous fungi were grown under the same conditions for 4 days to obtain spores. The inoculum level for all cultures was adjusted to 10^4 cells using a Petroff-Hauser cell counter. The glutarimide antifungal compounds cycloheximide or amphotericin B were used as a control. Inoculated test plates were incubated at 32° C. and examined after 20 hours.

[2] = tested on: Candida albicans ATCC 10231
Protocol: as §1

[3] = tested on: Candida albicans 579a; conditions: read-out: MIC II
Protocol: as §1

[4] = tested on: Candida albicans ATCC 38247
Protocol: as §1

[5] = tested on: Candida albicans CCH 442; conditions: CCH442; Table 6c, 3rd value column (head printed II); III Candida albicans CCH 442; agar dilution; read-out: MIC II
Protocol: as §1

[6] = ATCC62376, Table 6c, V Candida albicans ATCC 62376, agar dilution, read-out: MIC V
[7] = ATCC10231, Table 6c, I Candida albicans ATCC 10231, agar dilution, read-out: MIC I
[8] = Table 6c, II Candida albicans 579a, agar dilution
[9] = ATCC38247, Table 6c, IV Candida albicans ATCC 38247, agar dilution, read-out: MIC IV
[10] = Candida albicans, ATCC62376, read-out: MIC V
[11] = Candida albicans, ATCC10231, read-out: MIC I
[12] = Candida albicans, ATCC38247, read-out: MIC IV

Structure (SMILES)	MIC [1, 6] [µg/mL]	MIC [2, 7] [µg/mL]	MIC [3, 8] [µg/mL]	MIC [4, 9] [µg/mL]	MIC [5] [µg/mL]	MIC [1, 10] [µg/mL]	MIC [2, 11] [µg/mL]	MIC ([3]; Candida albicans, 579A) [µg/mL]	MIC [4, 12] [µg/mL]
CCCCC/C=C/C=C/C(=O)OC[C@H]1O[C@@H](O[C@H]2[C@H](OC(=O)/C=C/C=C/C[C@H](O)/C=C/C=C/CCCCC)[C@@H](O)[C@H](c3c(O)cc(O)cc3CO)O[C@@H]2CO)[C@H](O[C@@H]2O[C@H](CO)[C@H](O)[C@H](O)[C@H]2O)[C@@H](O)[C@H]1O [Example 11]	3.12 (≈ 3.05 µM)	1.56 (≈ 1.52 µM)	0.78 (≈ 0.762 µM)	1.56 (≈ 1.52 µM)	1.56 (≈ 1.52 µM)				
CCCCC/C=C/C=C/[C@@H](O)C/C=C/C=C/C(=O)O[C@@H]1[C@@H](O)[C@H](c2c(O)cc(O)cc2CO)O[C@H](CO)[C@H]1O[C@@H]1O[C@H](COC(=O)CCC)[C@H](O)[C@H](O)[C@H]1O[C@@H]1O[C@H](CO)[C@H](O)[C@H](O)[C@H]1O [Example 12]	50 (≈ 53 µM)	50 (≈ 53 µM)	50 (≈ 53 µM)	25 (≈ 26.5 µM)	25 (≈ 26.5 µM)				
CCCCC/C=C/C=C/[C@@H](O)C/C=C/C=C/C(=O)O[C@@H]1[C@@H](O)[C@H](c2c(O)cc(O)cc2CO)O[C@H](CO)[C@H]1O[C@@H]1O[C@H](COC(=O)CCCCCCCCC)[C@H](O)[C@H](O)[C@H]1O[C@@H]1O[C@H](CO)[C@H](O)[C@H](O)[C@H]1O [Example 13]	12.5 (≈ 12.2 µM)	12.5 (≈ 12.2 µM)	12.5 (≈ 12.2 µM)	12.5 (≈ 12.2 µM)	6.25 (≈ 6.08 µM)				
CCCCC/C=C/C=C/[C@@H](O)C/C=C/C=C/C(=O)O[C@@H]1[C@@H](O)[C@H](c2c(O)cc(O)cc2CO)O[C@H](CO)[C@H]1O[C@@H]1O[C@H](COC(=O)c2ccc(CCCC)cc2)[C@H](O)[C@H](O)[C@H]1O[C@@H]1O[C@H](CO)[C@H](O)[C@H](O)[C@H]1O [Example 15]	1.56 (≈ 1.51 µM)	3.12 (≈ 3.02 µM)	0.78 (≈ 0.755 µM)	1.56 (≈ 1.51 µM)	3.12 (≈ 3.02 µM)				
CCCCC/C=C/C=C/[C@@H](O)C/C=C/C=C/C(=O)O[C@@H]1[C@@H](O)[C@H](c2c(O)cc(O)cc2CO)O[C@H](CO)[C@H]1O[C@@H]1O[C@H](COC(=O)/C=C/c2ccccc2)[C@H](O)[C@H](O)[C@H]1O[C@@H]1O[C@H](CO)[C@H](O)[C@H](O)[C@H]1O [Example 16]	12.5 (≈ 12.5 µM)	12.5 (≈ 12.5 µM)	12.5 (≈ 12.5 µM)	6.25 (≈ 6.23 µM)	12.5 (≈ 12.5 µM)				
CCCCC/C=C/C=C/[C@@H](O)C/C=C/C=C/C(=O)O[C@@H]1[C@@H](O)[C@H](c2c(O)cc(O)cc2CO)O[C@H](CO)[C@H]1O[C@@H]1O[C@H](COC(=O)/C=C/c2cc(C(C)(C)C)cc(C(C)(C)C)c2)[C@H](O)[C@H](O)[C@H]1O[C@@H]1O[C@H](CO)[C@H](O)[C@H](O)[C@H]1O [Example 17]	6.25 (≈ 5.6 µM)	6.25 (≈ 5.6 µM)	3.12 (≈ 2.8 µM)	3.12 (≈ 2.8 µM)	3.12 (≈ 2.8 µM)				
CCCCC/C=C/C=C/[C@@H](O)C/C=C/C=C/C(=O)O[C@@H]1[C@@H](O)[C@H](c2c(O)cc(O)cc2CO)O[C@H](CO)[C@H]1O[C@@H]1O[C@H](COC(=O)c2ccc(OCCCCCCCC)cc2)[C@H](O)[C@H](O)[C@H]1O[C@@H]1O[C@H](CO)[C@H](O)[C@H](O)[C@H]1O [Example 18]	0.78 (≈ 0.706 µM)	3.12 (≈ 2.82 µM)	1.56 (≈ 1.41 µM)	1.56 (≈ 1.41 µM)	1.56 (≈ 1.41 µM)				
CCCCC/C=C/C=C/[C@@H](O)C/C=C/C=C/C(=O)O[C@@H]1[C@@H](O)[C@H](c2c(O)cc(O)cc2CO)O[C@H](CO)[C@H]1O[C@@H]1O[C@H](COC(=O)c2ccc(-c3ccc(CC)cc3)cc2)[C@H](O)[C@H](O)[C@H]1O[C@@H]1O[C@H](CO)[C@H](O)[C@H](O)[C@H]1O [Example 21]	0.39 (≈ 0.361 µM)	0.78 (≈ 0.721 µM)	0.2 (≈ 0.185 µM)	0.78 (≈ 0.721 µM)	0.78 (≈ 0.721 µM)				
CCCCC/C=C/C=C/[C@@H](O)C/C=C/C=C/C(=O)O[C@@H]1[C@@H](O)[C@H](c2c(O)cc(O)cc2CO)O[C@H](CO)[C@H]1O[C@@H]1O[C@H](COC(=O)c2ccc3cc(OCc4ccccc4)ccc3c2)[C@H](O)[C@H](O)[C@H]1O[C@@H]1O[C@H](CO)[C@H](O)[C@H](O)[C@H]1O [Example 24]	25 (≈ 22.1 µM)	25 (≈ 22.1 µM)	25 (≈ 22.1 µM)	50 (≈ 44.1 µM)	25 (≈ 22.1 µM)				
CCCCC/C=C/C=C/[C@@H](O)C/C=C/C=C/C(=O)O[C@@H]1[C@@H](O)[C@H](c2c(O)cc(O)cc2CO)O[C@H](CO)[C@H]1O[C@@H]1O[C@H](COC(=O)c2ccc3c(ccc4ccccc43)c2)[C@H](O)[C@H](O)[C@H]1O[C@@H]1O[C@H](CO)[C@H](O)[C@H](O)[C@H]1O [Example 25]					0.78 (≈ 0.724 µM)	1.56 (≈ 1.45 µM)	1.56 (≈ 1.45 µM)	0.78 (≈ 0.724 µM)	1.56 (≈ 1.45 µM)
CCCCC/C=C/C=C/[C@@H](O)C/C=C/C=C/C(=O)O[C@@H]1[C@@H](O)[C@H](c2c(O)cc(O)cc2CO)O[C@H](CO)[C@H]1O[C@@H]1O[C@H](COC(=O)c2ccc3ccc4ccccc4c3c2)[C@H](O)[C@H](O)[C@H]1O[C@@H]1O[C@H](CO)[C@H](O)[C@H](O)[C@H]1O [Example 26]					1.56 (≈ 1.45 µM)	0.78 (≈ 0.724 µM)	0.78 (≈ 0.724 µM)	0.78 (≈ 0.724 µM)	1.56 (≈ 1.45 µM)
CCCCC/C=C/C=C/[C@@H](O)C/C=C/C=C/C(=O)O[C@@H]1[C@@H](O)[C@H](c2c(O)cc(O)cc2CO)O[C@H](CO)[C@H]1O[C@@H]1O[C@H](COC(=O)c2cc3ccccc3c3ccccc23)[C@H](O)[C@H](O)[C@H]1O[C@@H]1O[C@H](CO)[C@H](O)[C@H](O)[C@H]1O [Example 27]					3.12 (≈ 2.9 µM)	3.12 (≈ 2.9 µM)	3.12 (≈ 2.9 µM)	3.12 (≈ 2.9 µM)	6.25 (≈ 5.8 µM)

Continued, in another order:

MIC [1, 6] [µg/mL]	MIC [2, 7] [µg/mL]	MIC [3, 8] [µg/mL]	MIC [4, 9] [µg/mL]	MIC [5] [µg/mL]	Structure (SMILES)	MIC [1, 10] [µg/mL]	MIC [2, 11] [µg/mL]	MIC ([3]; Candida albicans, 579A) [µg/mL]	MIC [4, 12] [µg/mL]
12.5 (≈ 12.8 µM)	12.5 (≈ 12.8 µM)	6.25 (≈ 6.4 µM)	6.25 (≈ 6.4 µM)	12.5 (≈ 12.8 µM)	CCCCC/C=C/C=C/[C@@H](O)C/C=C/C=C/C(=O)O[C@@H]1[C@@H](O)[C@H](c2c(O)cc(O)cc2CO)O[C@H](CO)[C@H]1O[C@@H]1O[C@H](COC(=O)c2ccccc2)[C@H](O)[C@H](O)[C@H]1O[C@@H]1O[C@H](CO)[C@H](O)[C@H](O)[C@H]1O [Example 14]				
3.12 (≈ 3.04 µM)	3.12 (≈ 3.04 µM)	0.78 (≈ 0.759 µM)	0.78 (≈ 0.759 µM)	1.56 (≈ 1.52 µM)	CCCCC/C=C/C=C/[C@@H](O)C/C=C/C=C/C(=O)O[C@@H]1[C@@H](O)[C@H](c2c(O)cc(O)cc2CO)O[C@H](CO)[C@H]1O[C@@H]1O[C@H](COC(=O)c2ccc3ccccc3c2)[C@H](O)[C@H](O)[C@H]1O[C@@H]1O[C@H](CO)[C@H](O)[C@H](O)[C@H]1O [Example 19]				
6.25 (≈ 6.09 µM)	3.12 (≈ 3.04 µM)	3.12 (≈ 3.04 µM)	1.56 (≈ 1.52 µM)	3.12 (≈ 3.04 µM)	CCCCC/C=C/C=C/[C@@H](O)C/C=C/C=C/C(=O)O[C@@H]1[C@@H](O)[C@H](c2c(O)cc(O)cc2CO)O[C@H](CO)[C@H]1O[C@@H]1O[C@H](COC(=O)c2cccc3ccccc23)[C@H](O)[C@H](O)[C@H]1O[C@@H]1O[C@H](CO)[C@H](O)[C@H](O)[C@H]1O [Example 20]				
6.25 (≈ 6 µM)	6.25 (≈ 6 µM)	3.12 (≈ 3 µM)	12.5 (≈ 12 µM)	3.12 (≈ 3 µM)	CCCCC/C=C/C=C/[C@@H](O)C/C=C/C=C/C(=O)O[C@@H]1[C@@H](O)[C@H](c2c(O)cc(O)cc2CO)O[C@H](CO)[C@H]1O[C@@H]1O[C@H](COC(=O)Cc2ccc3ccccc3c2)[C@H](O)[C@H](O)[C@H]1O[C@@H]1O[C@H](CO)[C@H](O)[C@H](O)[C@H]1O [Example 22]				
6.25 (≈ 5.77 µM)	12.5 (≈ 11.5 µM)	3.12 (≈ 2.88 µM)	6.25 (≈ 5.77 µM)	6.25 (≈ 5.77 µM)	C=CCOc1ccc2cc(C(=O)OC[C@H]3O[C@@H](O[C@H]4[C@H](OC(=O)/C=C/C=C/C[C@H](O)/C=C/C=C/CCCCC)[C@@H](O)[C@H](c5c(O)cc(O)cc5CO)O[C@@H]4CO)[C@H](O[C@@H]4O[C@H](CO)[C@H](O)[C@H](O)[C@H]4O)[C@@H](O)[C@H]3O)ccc2c1 [Example 23]				
1.56 (≈ 1.48 µM)	1.56 (≈ 1.48 µM)	0.39 (≈ 0.371 µM)	0.78 (≈ 0.742 µM)	0.39 (≈ 0.371 µM)	CCCCC/C=C/C=C/[C@@H](O)C/C=C/C=C/C(=O)O[C@@H]1[C@@H](O)[C@H](c2c(O)cc(O)cc2CO)O[C@H](CO)[C@H]1O[C@@H]1O[C@H](COC(=O)c2ccc3c(c2)-c2ccccc2-3)[C@H](O)[C@H](O)[C@H]1O[C@@H]1O[C@H](CO)[C@H](O)[C@H](O)[C@H]1O [Example 28]				
1.56 (≈ 1.41 µM)	1.56 (≈ 1.41 µM)	0.78 (≈ 0.707 µM)	1.56 (≈ 1.41 µM)	1.56 (≈ 1.41 µM)	CCCCC/C=C/C=C/[C@@H](O)C/C=C/C=C/C(=O)O[C@@H]1[C@@H](O)[C@H](c2c(O)cc(O)cc2CO)O[C@H](CO)[C@H]1O[C@@H]1O[C@H](COC(=O)c2ccc(-c3ccc4ccccc4c3)cc2)[C@H](O)[C@H](O)[C@H]1O[C@@H]1O[C@H](CO)[C@H](O)[C@H](O)[C@H]1O [Example 29]				
0.78 (≈ 0.741 µM)	0.78 (≈ 0.741 µM)	0.78 (≈ 0.741 µM)	1.56 (≈ 1.48 µM)	0.78 (≈ 0.741 µM)	CCCCC/C=C/C=C/[C@@H](O)C/C=C/C=C/C(=O)O[C@@H]1[C@@H](O)[C@H](c2c(O)cc(O)cc2CO)O[C@H](CO)[C@H]1O[C@@H]1O[C@H](COC(=O)c2ccc(-c3ccccc3)cc2)[C@H](O)[C@H](O)[C@H]1O[C@@H]1O[C@H](CO)[C@H](O)[C@H](O)[C@H]1O [Example 30]				
